From the supplement of paper PMC10307832

Columns and labels:
Assay in all cases: relative viability (nuclei count vs DMSO), 5 days (fraction); higher = more cells survive
[1] = compound: Cc1cnc(Nc2ccc(OCCN3CCCC3)cc2)nc1Nc1cccc(S(=O)(=O)NC(C)(C)C)c1 [Fedratinib] + Nc1nc2[nH]cc(CCc3ccc(C(=O)N[C@@H](CCC(=O)O)C(=O)O)cc3)c2c(=O)[nH]1 [Pemetrexed] (partner 0.2 µM)
Summary of the method: (§1)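 After 5 days of treatment, lung cancer cells in 1536-well plates were fixed and stained in a single step (final 0.05% Triton X-100, 1% formaldehyde, 1 ug/ml Hoechst) and their nuclei counted on 4× images. Treatment had been applied by pin tool the day after seeding as one drug alone or as a fixed anchor-drug dose with five library-drug doses (not always all listed) in √10 steps. Relative viability is the nuclei count of treated wells divided by that of vehicle wells, and values are medians of duplicate plates.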

[2] = compound: COC1=CC=C(C=C1)COC2=C(C=C(C=C2)CC3=CN=C(N=C3N)N)OC [GW-2580] + N=C(N)NC(=N)NCCc1ccccc1 [Phenformin] (partner 250 µM)
Summary of the method: as §1

[3] = compound: COC1=CC=C(C=C1)COC2=C(C=C(C=C2)CC3=CN=C(N=C3N)N)OC [GW-2580] + COc1cccc2cc(-c3nc([C@H]4CC[C@H](C(=O)O)CC4)n4ncnc(N)c34)[nH]c12 [OSI-027] (partner 0.5 µM)
Summary of the method: as §1

[4] = compound: COC1=CC=C(C=C1)COC2=C(C=C(C=C2)CC3=CN=C(N=C3N)N)OC [GW-2580] + Cc1cc(Nc2cc(N3CCN(C)CC3)nc(Sc3ccc(NC(=O)C4CC4)cc3)n2)n[nH]1 [Tozasertib] (partner 0.1 µM)
Summary of the method: as §1

[5] = compound: COC1=CC=C(C=C1)COC2=C(C=C(C=C2)CC3=CN=C(N=C3N)N)OC [GW-2580] + C[C@]1(O)C[C@@H](c2nc(-c3ccc4ccc(-c5ccccc5)nc4c3)c3c(N)nccn32)C1 [Linsitinib] (partner 1 µM)
Summary of the method: as §1

Cell Line	relative viability ([1]; first compound 0.1 µM)	relative viability ([1]; first compound 0.3162 µM)	relative viability ([1]; first compound 1 µM)	relative viability ([2]; first compound 0.08 µM)	relative viability ([2]; first compound 0.8 µM)	relative viability ([2]; first compound 2.53 µM)	relative viability ([2]; first compound 8 µM)	relative viability ([3]; first compound 0.08 µM)	relative viability ([3]; first compound 0.8 µM)	relative viability ([3]; first compound 2.53 µM)	relative viability ([3]; first compound 8 µM)	relative viability ([4]; first compound 0.08 µM)	relative viability ([4]; first compound 0.8 µM)	relative viability ([4]; first compound 2.53 µM)	relative viability ([4]; first compound 8 µM)	relative viability ([5]; first compound 0.08 µM)	relative viability ([5]; first compound 0.8 µM)	relative viability ([5]; first compound 2.53 µM)	relative viability ([5]; first compound 8 µM)
HCC-44	0.646	0.638	0.68	0.181	0.153	0.183	0.253	0.51	0.523	0.5	0.524	1.13	0.913	0.937	0.918	0.736	0.759	0.628	0.687
HCC-827	0.233	0.271	0.256	0.451	0.442	0.436	0.447	0.848	0.906	0.278	0.687	0.557	0.469	0.47	0.371	0.975	1.03	1.01	0.961
NCI-H1623	–	–	–	0.566	0.587	0.463	0.566	0.4	0.475	0.393	0.428	0.631	0.416	0.594	0.486	–	–	–	–
NCI-H2347	0.335	0.419	0.433	0.423	0.482	0.241	0.47	0.341	0.364	0.371	0.433	0.538	0.745	0.508	0.401	0.996	0.864	0.954	0.884
PC-14	0.124	0.132	0.131	0.358	0.82	0.494	0.615	1	1.08	0.671	0.817	0.665	0.68	0.514	0.468	1.12	0.987	0.934	1.03
NCI-H1651	0.457	0.543	0.57	0.36	0.371	0.304	0.358	0.804	0.753	0.748	0.896	0.763	0.745	0.702	0.569	1.06	1.04	1	0.982
HARA	0.253	0.259	0.185	0.461	0.524	0.328	0.304	0.504	0.452	0.491	0.395	0.111	0.127	0.0978	0.0792	1.09	1.06	1.08	0.845
NCI-H1650	0.292	0.312	0.37	0.516	0.461	0.372	0.536	0.738	0.747	0.624	0.464	0.455	0.543	0.452	0.363	–	–	–	–
NCI-H1395	0.728	0.952	0.665	0.452	0.484	0.421	0.438	0.64	0.689	0.661	0.684	0.829	0.805	0.658	0.734	1.07	1.08	0.97	0.931
